According to patent US11884647B2, “Compounds and methods for targeting pathogenic blood vessels” (THE REGENTS OF THE UNIVERSITY OF CALIFORNIA, priority 2019, dated 2024):

Columns and labels:
[1] = test system: tumor endothelial cells (LL/2 lung cancer tumor); assay: Lung LL2 ex vivo model of tumor angiogenesis; format: cell-based, mouse; details: for cytotoxicity at 40 µM / cytotoxicity at 20 µM: Mus musculus, Endothelial cell, 48 h, read-out: Cell death; for Cell death: Lung LL2 ex vivo, drug treatment two days
How it was run: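 Read-out is live/dead fluorescence imaging (fluorescein diacetate green, propidium iodide red, 10 min at 37° C) at 2×, taken e.g. 48 h after drug addition. Fragments of mouse LL2 tumor are cultured in Matrigel with endothelial growth medium, usually 4 days, until new endothelial cells grow out, then treated.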

[2] = test system: tumor endothelial cells (CT26.CL25 colon cancer tumor); assay: Colon CT26 ex vivo model of tumor angiogenesis; format: cell-based; details: Mus musculus, CT26, 48 h, read-out: Cell death
How it was run: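 Explant pieces of CT26 tumor (about 0.075 mm^3) were embedded in Matrigel and grown in endothelial growth medium at 37 °C for about 7 days until endothelial outgrowth appeared, then treated. Cell death was read about 48 h after drug addition by fluorescein diacetate (live) and propidium iodide (dead) staining with red/green imaging.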

Compound	cytotoxicity at 40 µM [1] [%]	cytotoxicity at 40 µM [2] [%]	cytotoxicity at 20 µM [1] [%]	further results
CCOC(=O)c1ccc2ncc(S(=O)(=O)c3ccc(CC)cc3)c(N3CCCN(C)CC3)c2c1 [compound 63, ethyl 3-((4-ethylphenyl)sulfonyl)-4-(4-methyl-1,4-diazepan-1-yl)quinoline-6-carboxylate]	50	70		
CCCCN(CCCC)c1c(S(=O)(=O)c2ccc(OC)c(OC)c2)cnc2ccc(OC(F)(F)F)cc12 [compound 74, N,N-dibutyl-3-((3,4-dimethoxyphenyl)sulfonyl)-6-(trifluoromethoxy)quinolin-4-amine]	60	100		
CCCCOc1ccc2ncc(S(=O)(=O)c3ccc(OC)c(OC)c3)c(N3CCC(N4CCCCC4)CC3)c2c1 [compound 116, 4-([1,4′-bipiperidin]-1′-yl)-6-butoxy-3-((3,4-dimethoxyphenyl)sulfonyl)quinoline]			100	cytotoxicity at 20 µM [2]: 50%
CCc1ccc(S(=O)(=O)c2cnc3ccc(OC(F)(F)F)cc3c2-n2nnc3ccccc32)cc1 [compound 112, 4-(1H-benzo[d][1,2,3]triazol-1-yl)-3-((4-ethylphenyl)sulfonyl)-6-(trifluoromethoxy)quinoline]		10	70	
CCc1ccc(S(=O)(=O)c2cnc3ccc(CC#N)cc3c2N2CCC(N3CCCCC3)CC2)cc1 [compound 55, 2-(4-([1,4′-bipiperidin]-1′-yl)-3-((4-ethylphenyl)sulfonyl)quinolin-6-yl)acetonitrile]	70	50		
CCCCOc1ccc(S(=O)(=O)c2cnc3ccc([S+](C)[O-])cc3c2N2CCCN(CCN3CCCCC3)CC2)cc1 (stereo not shown) [compound 209, 3-((4-butoxyphenyl)sulfonyl)-6-(methylsulfinyl)-4-(4-(2-(piperidin-1-yl)ethyl)-1,4-diazepan-1-yl)quinoline]	60	90		
CCc1ccc(S(=O)(=O)c2cnc3ccc(OC(F)(F)F)cc3c2N2CCN(c3ccc(C#N)cc3)CC2)cc1 [compound 45, 4-(4-(3-((4-ethylphenyl)sulfonyl)-6-(trifluoromethoxy)quinolin-4-yl)piperazin-1-yl)benzonitrile]		0		Cell death ([1]; Conc. 40 μm): 10%
CCc1ccc(S(=O)(=O)c2cnc3ccc(OC(F)(F)F)cc3c2-n2cnc(C)c2)cc1 [compound 117, 3-((4-ethylphenyl)sulfonyl)-4-(4-methyl-1H-imidazol-1-yl)-6-(trifluoromethoxy)quinoline]			100	cytotoxicity at 20 µM [2]: 100%
CCc1ccc(S(=O)(=O)c2cnc3ccc(OC(F)(F)F)cc3c2-n2ccnc2)cc1 [compound 118, 3-((4-ethylphenyl)sulfonyl)-4-(1H-imidazol-1-yl)-6-(trifluoromethoxy)quinoline]			100	cytotoxicity at 20 µM [2]: 100%
CCCCOc1ccc(S(=O)(=O)c2cnc3ccc(C(=O)OCC)cc3c2N2CCC(N3CCCCC3)CC2)cc1 [compound 157, ethyl 4-([1,4′-bipiperidin]-1′-yl)-3-((4-butoxyphenyl)sulfonyl)quinoline-6-carboxylate]	100	60		
CCCCCCCOc1ccc(S(=O)(=O)c2cnc3ccc([S+](C)[O-])cc3c2N2CCC(N3CCN(CCO)CC3)CC2)cc1 (stereo not shown) [compound 257, 2-(4-(1-(3-((4-(heptyloxy)phenyl)sulfonyl)-6-(methylsulfinyl)quinolin-4-yl)piperidin-4-yl)piperazin-1-yl)ethan-1-ol]			100	cytotoxicity at 10 µM [2]: 100%
CCCCOc1ccc(S(=O)(=O)c2cnc3ccc(C(=O)OCC)cc3c2N2CCC(N3CCOCC3)CC2)cc1 [compound 212, ethyl 3-((4-butoxyphenyl)sulfonyl)-4-(4-morpholinopiperidin-1-yl)quinoline-6-carboxylate]	50	10		
CCCCOc1ccc(S(=O)(=O)c2cnc3ccc(OC(F)(F)F)cc3c2N2CCC(N3CCCCC3)CC2)cc1 [compound 119, 4-([1,4′-bipiperidin]-1′-yl)-3-((4-butoxyphenyl)sulfonyl)-6-(trifluoromethoxy)quinoline]			100	cytotoxicity at 20 µM [2]: 50%
CCCCN(CCCC)c1c(S(=O)(=O)c2ccc(CC)cc2)cnc2ccc(OC(F)(F)F)cc12 [compound 87, N,N-dibutyl-3-((4-ethylphenyl)sulfonyl)-6-(trifluoromethoxy)quinolin-4-amine]	0	0		
CCCCOc1ccc(S(=O)(=O)c2cnc3ccc(SC)cc3c2N2CCCN(CCN3CCCCC3)CC2)cc1 [compound 206, 3-((4-butoxyphenyl)sulfonyl)-6-(methylthio)-4-(4-(2-(piperidin-1-yl)ethyl)-1,4-diazepan-1-yl)quinoline]		100	30	
COc1ccc(S(=O)(=O)c2cnc3ccc(OC(F)(F)F)cc3c2-n2cncn2)cc1OC [compound 89, 3-((3,4-dimethoxyphenyl)sulfonyl)-4-(1H-1,2,4-triazol-1-yl)-6-(trifluoromethoxy)quinoline]			100	cytotoxicity at 10 µM [2]: 100%
CCCCCCCOc1ccc(S(=O)(=O)c2cnc3ccc([S+](C)[O-])cc3c2N2CCC(N3CCN(C)CC3)CC2)cc1 (stereo not shown) [compound 253, 3-((4-(heptyloxy)phenyl)sulfonyl)-4-(4-(4-methylpiperazin-1-yl)piperidin-1-yl)-6-(methylsulfinyl)quinoline]			100	cytotoxicity at 10 µM [2]: 80%
COc1ccc(S(=O)(=O)c2cnc3ccc(OC(F)(F)F)cc3c2N2CCC(O)CC2)cc1OC [compound 58, 1-(3-((3,4-dimethoxyphenyl)sulfonyl)-6-(trifluoromethoxy)quinolin-4-yl)piperidin-4-ol]	50	50		
CCCCOc1ccc(S(=O)(=O)c2cnc3ccc([S+](C)[O-])cc3c2N2CCC(N3CCCC(O)C3)CC2)cc1 (stereo not shown) [compound 208, 1′-(3-((4-butoxyphenyl)sulfonyl)-6-(methylsulfinyl)quinolin-4-yl)-[1,4′-bipiperidin]-3-ol]	50	20		
CCN(CC)CCNC(=O)c1ccc2ncc(S(=O)(=O)c3ccc(OC)cc3)c(N3CCCN(C)CC3)c2c1 [compound 166, N-(2-(diethylamino)ethyl)-3-((4-methoxyphenyl)sulfonyl)-4-(4-methyl-1,4-diazepan-1-yl)quinoline-6-carboxamide]	10	60		
CCc1ccc(S(=O)(=O)c2cnc3ccc(OC(F)(F)F)cc3c2N2CCC(N3CCC(O)CC3)CC2)cc1 [compound 102, 1′-(3-((4-ethylphenyl)sulfonyl)-6-(trifluoromethoxy)quinolin-4-yl)-[1,4′-bipiperidin]-4-ol]		5		Cell death ([1]; Conc. 20 μm): 20%
CCCCOc1ccc(S(=O)(=O)c2cnc3ccc(C(=O)NC(C)C)cc3c2N2CCCN(C)CC2)cc1 [compound 192, 3-((4-butoxyphenyl)sulfonyl)-N-isopropyl-4-(4-methyl-1,4-diazepan-1-yl)quinoline-6-carboxamide]	60	10		
CCOC(=O)c1ccc2ncc(S(=O)(=O)c3ccc(CC)cc3)c(NN3CCN(C)CC3)c2c1 [compound 84, ethyl 3-((4-ethylphenyl)sulfonyl)-4-((4-methylpiperazin-1-yl)amino)quinoline-6-carboxylate]	100	100		
